One data set addresses T1, ROCK2 kinase (Homo sapiens, UniProt O75116).
T1 construct: purchased Invitrogen PV3759
Nature of the data set: In-vitro evaluation of ROCK2 kinase activity (HTRF KinEASE-STK). Format: biochemical. The protocol:
ROCK2 activity screening: ROCK2 activity was detected using a 96-well (Cisbio) time-resolved fluorometric assay. The assay for ROCK2 was performed in the following assay buffer: 5 mM MgCl2 (Sigma), 1 mM DTT (Sigma), and 1× kinase buffer. The kinase buffer was used for dilution. 7.5 μL of ROCK2 kinase (Invitrogen, PV3759) was first added to a 96-well microplate to achieve a final concentration of 0.4 ng/μL, and then […] of compound I (DMSO content: 1% (volume fraction)) was added. The mixture was incubated at room temperature for 0.5 h. To start the reaction, the kinase buffer was used to mix ATP (Aladdin) and the substrate STK-substrate 2-biotin. 7.5 μL of the mixed solution was added to the microplate to achieve final concentrations of 6.739 μM and 1 μM. The resulting mixture was incubated at room temperature for another 2 h. 5 mL of detection buffer was mixed with STK antibody-Cryptate, and then an appropriate volume of the mixture was mixed with an equal volume of streptavidin-XL665. 10 μL of the resulting mixture was added to the microplate to stop the reaction. After further incubation for about 1 h, the microplate was read on a Molecular Devices Spectra Max i3x multifunctional microplate reader. […]
For orientation: TR-FRET usually uses a lanthanide donor and a delayed reading to cut background.

Another data set deals with T2, ROCK1 kinase (Homo sapiens, UniProt Q13464).
T2 construct: purchased Invitrogen
T2 sequence (Q13464 whole entry): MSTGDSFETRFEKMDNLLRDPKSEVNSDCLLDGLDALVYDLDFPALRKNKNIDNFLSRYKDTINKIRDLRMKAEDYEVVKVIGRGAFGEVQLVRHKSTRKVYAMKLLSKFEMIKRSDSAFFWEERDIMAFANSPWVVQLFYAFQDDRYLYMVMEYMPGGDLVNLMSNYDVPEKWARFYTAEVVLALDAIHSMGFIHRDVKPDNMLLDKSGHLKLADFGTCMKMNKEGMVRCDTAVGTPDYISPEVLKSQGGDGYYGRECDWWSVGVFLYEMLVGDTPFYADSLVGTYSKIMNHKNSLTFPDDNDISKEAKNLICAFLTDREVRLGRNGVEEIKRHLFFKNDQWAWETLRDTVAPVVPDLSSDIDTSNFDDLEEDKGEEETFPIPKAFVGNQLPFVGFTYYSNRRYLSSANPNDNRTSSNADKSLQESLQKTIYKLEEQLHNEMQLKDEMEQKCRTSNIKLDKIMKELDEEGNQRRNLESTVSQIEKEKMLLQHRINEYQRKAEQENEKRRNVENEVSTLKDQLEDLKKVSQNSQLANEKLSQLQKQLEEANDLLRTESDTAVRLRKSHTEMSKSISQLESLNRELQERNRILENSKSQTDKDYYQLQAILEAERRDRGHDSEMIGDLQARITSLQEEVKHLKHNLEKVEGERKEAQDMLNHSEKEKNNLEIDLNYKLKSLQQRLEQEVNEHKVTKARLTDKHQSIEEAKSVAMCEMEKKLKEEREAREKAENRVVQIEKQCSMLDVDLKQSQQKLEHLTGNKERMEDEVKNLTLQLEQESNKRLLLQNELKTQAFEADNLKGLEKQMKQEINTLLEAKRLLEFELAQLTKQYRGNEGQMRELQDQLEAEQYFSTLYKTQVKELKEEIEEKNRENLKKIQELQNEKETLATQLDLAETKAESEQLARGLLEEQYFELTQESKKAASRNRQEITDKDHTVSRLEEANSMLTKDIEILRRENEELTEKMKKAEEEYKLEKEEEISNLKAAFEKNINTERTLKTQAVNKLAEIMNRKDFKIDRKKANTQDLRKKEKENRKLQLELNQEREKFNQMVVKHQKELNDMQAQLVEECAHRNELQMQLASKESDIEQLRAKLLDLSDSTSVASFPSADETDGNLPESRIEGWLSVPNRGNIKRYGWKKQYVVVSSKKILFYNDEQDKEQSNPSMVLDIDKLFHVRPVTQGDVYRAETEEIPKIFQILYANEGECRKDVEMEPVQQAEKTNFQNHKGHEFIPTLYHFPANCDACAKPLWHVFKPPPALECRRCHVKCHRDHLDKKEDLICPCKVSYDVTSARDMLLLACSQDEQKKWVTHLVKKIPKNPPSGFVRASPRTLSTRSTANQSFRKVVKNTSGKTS
In words: In-vitro evaluation of ROCK1 kinase selectivity (HTRF KinEASE-STK). Format: biochemical. The protocol: ROCK1 activity was detected using a 96-well (Cisbio) time-resolved fluorometric assay. The assay for ROCK1 was performed in the following assay buffer: 5 mM MgCl2 (Sigma), 1 mM DTT (Sigma), and 1× kinase buffer. The kinase buffer was used for dilution. 7.5 μL of ROCK1 kinase (Invitrogen) was first added to a 96-well microplate to achieve a final concentration of 0.4 ng/μL, and then 0.25 μL of the compound (DMSO content: 1%) was added. The mixture was incubated at room temperature for 0.5 h. To start the reaction, the kinase buffer was also used to mix ATP (Aladdin) and the substrate STK-substrate 2-biotin. 7.5 μL of the mixed solution was added to the microplate to achieve final concentrations of 3.53 μM and 1 μM. The resulting mixture was incubated at room temperature for another 2 h. 5 mL of detection buffer was mixed with STK antibody-Cryptate, and then an appropriate volume of the mixture was mixed with an equal volume of streptavidin-XL665. 10 μL of the resulting mixture was added to stop the reaction. After further incubation for about 1 h, the microplate was read on a Molecular Devices SpectraMax i3x multifunctional microplate reader. The kinase buffer, the STK-substrate 2-biotin, the detection buffer, the STK antibody-Cryptate, and the streptavidin-XL665 were all from HTRF KinEASE-STK kit (Cisbio, 1000 tests, 61GSTXLA).

Data set [1] in a line: In-vitro cytotoxicity assay, CCK-8 method. The format is cell-based. The conditions noted are these: human, HepG2 cells. The procedure:
In-vitro cytotoxicity assay for compound I was performed in HepG2 cells using the CCK-8 method. HepG2 cells (Beina Bio) in the logarithmic growth phase were collected, the concentration of cell suspension was adjusted, and then the cells were plated on a 96-well cell culture plate at 50000 cells/well. The cells were then incubated in a cell incubator (5%, 37° C.) overnight. After 80%-90% cell confluence in the plate was achieved, medium change was performed, and then the test compound at each concentration gradient or vehicle (DMSO) was added. The resulting mixture was incubated in the cell incubator (5%, 37° C.) for 48 h. After the treatment was completed, the medium in the plate was discarded. The plate was washed twice with PBS, and a CCK-8 working solution (Beyotime) was added at 100 μL per well. The resulting mixture was then incubated at 37° C. for 1.5 h in the dark. The absorbance at OD450 nm was measured for each well on a microplate reader, and the CC50 value of each compound was analyzed and calculated.
(In general: Tetrazolium assays rely on reduction of a dye to a coloured formazan, in cell work by metabolically active cells.)

A short description of data set [2]: Pharmacokinetic study in rats. The format is in vivo, SD rats. The conditions noted are these: male, SD, rat, in vivo, po, 10 mg/kg. The protocol:
Compound I, 2-hydroxyethanesulfonate of compound I, ethanesulfonate (crystal form I) of compound I, tartrate of compound I, and sulfate of compound I were each accurately weighed, and the required volume of vehicle was added. The mixture was stirred for 5 min, then sonicated below 25° C. until no large particles were visible to the naked eye, and further stirred for 30 min until a homogeneous suspension was obtained. The suspension was then used for administration.
Male SPF-grade SD rats (Beijing Vital River Laboratory Animal Technology Co., Ltd.) were given compound I, the 2-hydroxyethanesulfonate of compound I, the ethanesulfonate of compound I (crystal form I), the tartrate of compound I, and the sulfate of compound I by single intragastric administration after an acclimation period (with free access to water and food). Blood was collected from the orbital venous plexus of the rats at 0.167 h, 0.5 h, 1 h, 2 h, 3 h, 4 h, 6 h, 9 h, 12 h, and 24 h after administration. Each blood sample was centrifuged at 3500×g for 10 min at 4° C. The supernatant was then collected, and the concentration of compound I in the plasma was measured by LC-MS/MS (AB Sciex TRIPLE QUAD 3500). The data were analyzed using a non-compartmental model in WinNonlin (version 5.2.1 Pharsight, Mountain View, CA) to obtain PK parameters.

Data set [3] can be described thus: Chemical stability on storage up to 3 months (HPLC purity), Table 13-4. Particulars: for Purity (%), 230 nm, Month 1 / Purity (%), 230 nm, Month 3: sealed and protected from light. The format is physicochemical. The protocol:
B) The HPLC method used for the stability study was as follows:
The vials were sealed with tin foil and then separately placed under the conditions of 40° C. temperature/75% humidity or 25° C. temperature/60% humidity for about 3 months. The samples after being placed for 0 months, 2 weeks, 1 month and 3 months were taken and each dissolved in a diluent to prepare a solution at about 1.0 mg/mL, which was then tested for chemical stability by HPLC analysis using Shimadzu LC-20ADxr.

Assay in data set [4]: as above
The conditions noted are these: 40° C./75% humidity, sealed and protected from light. The format is physicochemical.

Experimental findings from patent US20250074908A1, “SALT OF ROCK INHIBITOR, CRYSTAL FORM OF SALT, COMPOSITION, AND PHARMACEUTICAL USE” (WUHAN CREATERNA SCIENCE AND TECHNOLOGY CO., LTD., priority 2022, published 2025) are described below.

Bounds are passed on as bounds.

T1 sequence (O75116 whole entry): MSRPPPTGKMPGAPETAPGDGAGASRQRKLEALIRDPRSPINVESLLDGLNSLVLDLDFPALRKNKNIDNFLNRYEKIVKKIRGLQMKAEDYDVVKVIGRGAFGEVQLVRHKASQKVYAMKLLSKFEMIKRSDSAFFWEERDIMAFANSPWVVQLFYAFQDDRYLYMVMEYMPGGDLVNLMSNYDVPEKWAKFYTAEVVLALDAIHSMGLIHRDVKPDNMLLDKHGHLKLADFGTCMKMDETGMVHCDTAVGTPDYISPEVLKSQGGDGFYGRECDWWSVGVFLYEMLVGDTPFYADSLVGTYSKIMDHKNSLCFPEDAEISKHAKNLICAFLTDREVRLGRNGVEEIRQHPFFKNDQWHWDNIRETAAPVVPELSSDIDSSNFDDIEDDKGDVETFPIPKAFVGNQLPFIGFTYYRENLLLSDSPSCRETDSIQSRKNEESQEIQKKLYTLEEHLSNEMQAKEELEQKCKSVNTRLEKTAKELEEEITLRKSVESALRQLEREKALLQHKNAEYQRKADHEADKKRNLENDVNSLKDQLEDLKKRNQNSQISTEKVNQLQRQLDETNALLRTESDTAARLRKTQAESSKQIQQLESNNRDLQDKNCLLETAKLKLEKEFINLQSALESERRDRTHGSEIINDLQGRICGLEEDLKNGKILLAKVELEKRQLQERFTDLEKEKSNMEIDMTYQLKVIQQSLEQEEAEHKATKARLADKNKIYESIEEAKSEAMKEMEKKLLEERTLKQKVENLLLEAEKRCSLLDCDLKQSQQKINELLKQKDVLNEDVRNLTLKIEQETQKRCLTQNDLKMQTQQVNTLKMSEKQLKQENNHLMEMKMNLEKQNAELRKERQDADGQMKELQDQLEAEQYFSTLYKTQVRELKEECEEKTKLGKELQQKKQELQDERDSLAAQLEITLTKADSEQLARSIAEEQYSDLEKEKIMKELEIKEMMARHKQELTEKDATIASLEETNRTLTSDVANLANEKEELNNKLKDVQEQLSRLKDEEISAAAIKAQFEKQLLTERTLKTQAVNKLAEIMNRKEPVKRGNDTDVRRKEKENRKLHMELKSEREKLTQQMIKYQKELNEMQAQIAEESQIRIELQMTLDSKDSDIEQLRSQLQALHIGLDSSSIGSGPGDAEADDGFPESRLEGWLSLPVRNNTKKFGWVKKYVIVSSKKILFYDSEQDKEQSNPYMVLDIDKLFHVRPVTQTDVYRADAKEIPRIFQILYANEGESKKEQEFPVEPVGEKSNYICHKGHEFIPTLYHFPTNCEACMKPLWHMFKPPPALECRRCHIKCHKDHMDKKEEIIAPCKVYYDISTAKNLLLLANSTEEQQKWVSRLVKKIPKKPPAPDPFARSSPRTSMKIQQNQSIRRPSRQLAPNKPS

As for `Cn1c(C(=O)N2CC(F)(F)C2)cc2c1CN(c1ncc(F)c(Nc3ccc(-c4cn[nH]c4)cc3)n1)CC2` [Compound I, (6-(4-((4-(1H-pyrazol-4-yl)phenyl)amino)-5-fluoropyrimidin-2-yl)-1-methyl-4,5,6,7-tetrahydro-1H-pyrrolo[2,3-c]pyridin-2-yl)(3,3-difluoroazetidin-1-yl)methanone], the IC50 is 36.5 nM at ROCK2 kinase and above 4.5 µM against ROCK1 kinase. In data set [1], this molecule gave a CC50 at 48 h above 100 µM. Also, in data set [2], the AUC(0-t) turned out to be 2040 ng·h/mL. The Cmax in data set [2] is 251 ng/mL.
Consider `Cn1c(C(=O)N2CC(F)(F)C2)cc2c1CN(c1ncc(F)c(Nc3ccc(-c4cn[nH]c4)cc3)n1)CC2.O=C(O)C(O)C(O)C(=O)O` [Crystal form I of tartrate], for which the “stability in chemical properties” value in data set [3] (25° C./60% humidity and 40° C./75% humidity (sealed and protected from light)) is listed as “substantially stable”. The “Purity (%), 230 nm, Month 1” value in data set [3] (25° C./60% humidity) is 99.00%; in data set [3] (40° C./75% humidity), 98.95%. Further, the “Purity (%), 230 nm, Month 3” value in data set [3] (25° C./60% humidity) is 99.02%; in data set [3] (40° C./75% humidity), 99.04%. For the same molecule, the “Purity (%), 230 nm, Day 0” value in data set [3] (Day 0) is 98.98%. The “Purity (%), 230 nm, Month 2” value in data set [4] is on record as 99.18%.

In general, IC50 refers to the concentration needed to halve the response being measured. Lower therefore signals greater potency. As a reminder, the CC50 is the concentration that lowers cell viability or growth by half. Read a high CC50 as lower toxicity to the cells. A word on the AUC(0-t): it is the area under the concentration-time curve up to a stated or last time point. Low readings indicate less exposure, high ones more exposure. By Cmax is commonly meant the peak of the concentration-time curve.
